Source: the supplement of paper PMC10307832

Tests used:
Test in all cases: relative viability (nuclei count vs DMSO), 5 days (fraction); higher = more cells survive
IPA-3 + Tozasertib = compound: C1=CC=C2C(=C1)C=CC(=C2SSC3=C(C=CC4=CC=CC=C43)O)O [IPA-3] + Cc1cc(Nc2cc(N3CCN(C)CC3)nc(Sc3ccc(NC(=O)C4CC4)cc3)n2)n[nH]1 [Tozasertib] (partner 0.1 µM)
How it was run: (§1)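 Lung cancer cell lines in 1536-well plates were dosed by pin tool the day after seeding, either with one drug alone or with a fixed anchor-drug dose plus five library-drug doses (not always all listed) in √10 steps. After 5 days, cells were fixed and their nuclei stained in one step (final 0.05% Triton X-100, 1% formaldehyde, 1 ug/ml Hoechst), then counted on 4× images. Relative viability is the nuclei count in treated wells divided by that in vehicle wells. Values are medians of duplicate plates.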

Doramapimod + Trametinib = compound: Cc1ccc(-n2nc(C(C)(C)C)cc2NC(=O)Nc2ccc(OCCN3CCOCC3)c3ccccc23)cc1 [Doramapimod] + CC(=O)Nc1cccc(-n2c(=O)n(C3CC3)c(=O)c3c(Nc4ccc(I)cc4F)n(C)c(=O)c(C)c32)c1 [Trametinib] (partner 0.02 µM)
How it was run: as §1

Doramapimod + Pemetrexed = compound: Cc1ccc(-n2nc(C(C)(C)C)cc2NC(=O)Nc2ccc(OCCN3CCOCC3)c3ccccc23)cc1 [Doramapimod] + Nc1nc2[nH]cc(CCc3ccc(C(=O)N[C@@H](CCC(=O)O)C(=O)O)cc3)c2c(=O)[nH]1 [Pemetrexed] (partner 0.2 µM)
How it was run: as §1

RAF265 + Dasatinib = compound: Cn1c(Nc2ccc(C(F)(F)F)cc2)nc2cc(Oc3ccnc(-c4ncc(C(F)(F)F)[nH]4)c3)ccc21 [RAF265] + Cc1nc(Nc2ncc(C(=O)Nc3c(C)cccc3Cl)s2)cc(N2CCN(CCO)CC2)n1 [Dasatinib] (partner 0.075 µM)
How it was run: as §1

Cell Line | relative viability (IPA-3 + Tozasertib; first compound 0.2 µM) | relative viability (IPA-3 + Tozasertib; first compound 0.6325 µM) | relative viability (IPA-3 + Tozasertib; first compound 2 µM) | relative viability (IPA-3 + Tozasertib; first compound 6.325 µM) | relative viability (IPA-3 + Tozasertib; first compound 20 µM) | relative viability (Doramapimod + Trametinib; first compound 0.02 µM) | relative viability (Doramapimod + Trametinib; first compound 0.06325 µM) | relative viability (Doramapimod + Trametinib; first compound 0.2 µM) | relative viability (Doramapimod + Trametinib; first compound 0.6325 µM) | relative viability (Doramapimod + Trametinib; first compound 2 µM) | relative viability (Doramapimod + Pemetrexed; first compound 0.02 µM) | relative viability (Doramapimod + Pemetrexed; first compound 0.06325 µM) | relative viability (Doramapimod + Pemetrexed; first compound 0.2 µM) | relative viability (Doramapimod + Pemetrexed; first compound 0.6325 µM) | relative viability (Doramapimod + Pemetrexed; first compound 2 µM) | relative viability (RAF265 + Dasatinib; first compound 0.01 µM) | relative viability (RAF265 + Dasatinib; first compound 0.03162 µM) | relative viability (RAF265 + Dasatinib; first compound 0.1 µM) | relative viability (RAF265 + Dasatinib; first compound 1 µM) | relative viability (RAF265 + Dasatinib; first compound 0.3162 µM)
HCC-827 | 0.446 | 0.423 | 0.402 | 0.442 | 0.438 | 0.571 | 0.408 | 0.521 | 0.594 | 0.405 | 0.238 | 0.253 | 0.254 | 0.242 | 0.199 | 0.277 | 0.259 | 0.422 | 0.234 | –
HOP-62 | 0.388 | 0.312 | 0.395 | 0.382 | 0.402 | 0.411 | 0.349 | 0.464 | 0.423 | 0.468 | 0.242 | 0.306 | 0.295 | 0.326 | 0.309 | 0.747 | 0.618 | 0.647 | 0.504 | 0.691
LC-2-ad | 0.48 | 0.467 | 0.531 | 0.424 | 0.458 | 0.992 | 0.92 | 0.906 | 0.981 | 0.855 | 0.268 | 0.291 | 0.297 | 0.28 | 0.289 | 0.57 | 0.691 | 0.386 | 0.196 | 0.27
LCLC-97TM1 | 0.255 | 0.178 | 0.259 | 0.216 | 0.189 | 0.169 | 0.225 | 0.249 | 0.265 | 0.204 | 0.181 | 0.171 | 0.164 | 0.184 | 0.156 | 0.826 | 0.826 | 0.66 | 0.442 | 0.852
LCLC-103H | 0.582 | 0.528 | 0.577 | 0.443 | 0.539 | 0.656 | 0.675 | 0.683 | 0.68 | 0.679 | 0.436 | 0.417 | 0.413 | 0.428 | 0.424 | 0.431 | 0.467 | 0.478 | 0.338 | 0.386
LK-2 | 0.168 | 0.192 | 0.176 | 0.142 | 0.155 | 0.587 | 0.727 | 0.715 | 0.31 | 0.647 | 0.283 | 0.286 | 0.283 | 0.198 | 0.157 | 0.272 | 0.295 | 0.291 | 0.213 | 0.394
LOU-NH91 | 0.649 | 0.669 | 0.649 | 0.656 | 0.742 | 0.802 | 0.771 | 0.761 | 0.767 | 0.678 | 0.388 | 0.396 | 0.355 | 0.379 | 0.395 | 0.563 | 0.49 | 0.497 | 0.343 | 0.45
LU99A | 0.325 | 0.255 | 0.213 | 0.267 | 0.239 | 0.501 | 0.511 | 0.545 | 0.645 | 0.477 | 0.175 | 0.196 | 0.155 | 0.18 | 0.323 | 0.534 | 0.454 | 0.472 | 0.179 | 0.3
LXF-289 | 0.23 | 0.164 | 0.218 | 0.186 | 0.192 | 0.684 | 0.647 | 0.676 | 0.665 | 0.657 | 0.959 | 0.914 | 0.83 | 0.863 | 0.971 | 0.246 | 0.152 | 0.16 | 0.0862 | 0.142
NCI-H23 | 0.506 | 0.367 | 0.432 | 0.38 | 0.354 | 0.287 | 0.346 | 0.402 | 0.415 | 0.376 | 0.607 | 0.749 | 0.679 | 0.703 | 0.533 | 0.716 | 0.75 | 0.622 | 0.325 | 0.48
NCI-H322M | 0.502 | 0.408 | 0.527 | 0.498 | 0.513 | 0.429 | 0.519 | 0.541 | 0.524 | 0.498 | 0.666 | 0.653 | 0.64 | 0.644 | 0.654 | 0.267 | 0.278 | 0.229 | 0.213 | 0.303
NCI-H358 | 0.107 | 0.0935 | 0.11 | 0.0943 | 0.119 | 0.163 | 0.137 | 0.124 | 0.15 | 0.156 | 0.176 | 0.167 | 0.162 | 0.169 | 0.175 | 0.179 | 0.217 | 0.16 | 0.0873 | 0.171
NCI-H727 | 0.659 | 0.615 | 0.828 | 0.529 | 0.568 | 0.389 | 0.395 | 0.406 | 0.4 | 0.32 | – | – | – | – | – | 0.57 | 0.427 | 0.352 | 0.23 | 0.279
NCI-H1563 | – | – | – | – | – | – | – | – | – | – | 0.83 | 0.768 | 0.811 | 1.13 | 0.787 | 0.469 | 0.482 | 0.508 | 0.441 | 0.45
NCI-H1623 | 0.418 | 0.433 | 0.432 | 0.47 | 0.433 | – | – | – | – | – | – | – | – | – | – | 0.558 | 0.496 | 0.645 | 0.313 | –
NCI-H1648 | 0.753 | 0.545 | 0.646 | 0.391 | 0.482 | 0.435 | 0.46 | 0.508 | 0.582 | 0.402 | 0.745 | 0.87 | 0.584 | 0.705 | 0.632 | – | – | – | – | –
NCI-H1792 | – | – | – | – | – | 0.446 | 0.407 | 0.379 | 0.374 | 0.27 | 0.869 | 0.761 | 0.707 | 0.743 | 0.651 | 0.848 | 0.83 | 0.759 | 0.293 | 0.575
